Reference: patent publication US7772263B2, “Compounds for the treatment of inflammatory disorders” (Schering Corporation, priority 2006, dated 2010)

molecular target: T1, purified catalytic domain of recombinant human TACE (rhTACEc) (Homo sapiens, UniProt P78536, N452Q/S266A); experiment: TACE kinetic assay, cleavage of internally quenched fluorescent peptide substrate SPDL-3; type: biochemical; details: TACE inhibition, Table 1001; read-out: Ki Rating
T1 construct: rhTACEc, Residue 215 to 477 with two mutation (S266A and N4520) and a 6×His tail; 6xHis (C); made in house; host or cells: baculovirus/Hi5 insect cells
T1 sequence (P78536 215-477 S266A/N452Q limits assumed): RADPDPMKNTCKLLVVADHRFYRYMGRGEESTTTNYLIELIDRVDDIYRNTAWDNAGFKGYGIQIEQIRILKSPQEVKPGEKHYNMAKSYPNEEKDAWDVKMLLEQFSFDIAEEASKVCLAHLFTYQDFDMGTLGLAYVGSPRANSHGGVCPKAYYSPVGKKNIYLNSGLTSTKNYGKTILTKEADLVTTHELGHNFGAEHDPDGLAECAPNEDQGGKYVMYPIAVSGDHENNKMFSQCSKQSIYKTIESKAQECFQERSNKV

How did the Ki turn out when `COc1ccc2c(c1)C(=O)N(CC1(C#Cc3cnn(C)c3)NC(=O)NC1=O)C2` (centres unmarked) [Compound 312B] was run?
The Ki was less than 5 nM.

How did the Ki turn out when `COc1ccc2c(c1)C(=O)N(CC1(C#Cc3cccnc3)NC(=O)NC1=O)C2` (centres unmarked) [Compound 312] was run?
The Ki was less than 5 nM.

With `COc1ccc2c(c1)C(=O)N(CC1(C#Cc3ccc(F)cc3F)NC(=O)NC1=O)C2` (centres unmarked) [Compound 315A] as the molecule, how does the Ki read?
Its Ki is less than 5 nM.

With `COc1ccc2c(c1)C(=O)N(CC1(C#Cc3ccc(F)cc3)NC(=O)NC1=O)C2` (centres unmarked) [Compound 315] as the molecule, how does the Ki read?
Its Ki is less than 5 nM.

For `COc1ccc2c(c1)C(=O)N(C[C@@]1(C#Cc3cccnc3)NC(=O)NC1=O)C2` [Compound 400B], which Ki is on record?
The Ki was less than 5 nM.

With `C#C[C@]1(CN2Cc3ccc(OC)cc3C2=O)NC(=O)NC1=O` [Compound 401] as the molecule, how does the Ki read?
Its Ki is less than 5 nM.

For `COc1ccc2c(c1)C(=O)N(C[C@@]1(C#Cc3cncc(-c4cnn(C)c4)c3)NC(=O)NC1=O)C2` [Compound 409C], which Ki is on record?
The Ki was less than 5 nM.

With `COc1ccc2c(c1)C(=O)N(C[C@@]1(C#Cc3cncc(N4CCCC4)c3)NC(=O)NC1=O)C2` [Compound 410B] as the molecule, how does the Ki read?
The Ki was less than 5 nM.

`COc1ccc2c(c1)C(=O)N(C[C@@]1(C#Cc3ccc(F)cc3)NC(=O)NC1=O)C2` [Compound 411] was tested. Which Ki did it give?
Its Ki is less than 5 nM.

How did the Ki turn out when `CNc1nc2ccc(C#C[C@]3(CN4Cc5ccc(OC)cc5C4=O)NC(=O)NC3=O)cc2s1` [Compound 412D] was run?
Its Ki is less than 5 nM.

With `COc1ccc2c(c1)C(=O)N(C[C@@]1(C#Cc3ccc(CN4CCCC4)nc3)NC(=O)NC1=O)C2` [Compound 413D] as the molecule, how does the Ki read?
The Ki was less than 5 nM.

How did the Ki turn out when `COc1ccc2c(c1)C(=O)N(C[C@@]1(C#Cc3ccc(C4(N)CC4)nc3)NC(=O)NC1=O)C2` [Compound 414B] was run?
The Ki was 5 to 25 nM.

For `COc1ccc2c(c1)C(=O)N(C[C@@]1(C#Cc3ccc[nH]c3=O)NC(=O)NC1=O)C2` [Compound 417C], which Ki is on record?
The Ki was less than 5 nM.

How did the Ki turn out when `COc1ccc2c(c1)C(=O)N(C[C@@]1(C#Cc3ccc4nn(C)cc4c3)NC(=O)NC1=O)C2` [Compound 421] was run?
Its Ki is less than 5 nM.

`COc1ccc2c(c1)C(=O)N(C[C@@]1(C#Cc3ccc4nc(C)ccc4c3)NC(=O)NC1=O)C2` [Compound 422] was tested. Which Ki did it give?
Its Ki is less than 5 nM.

Which Ki does the source give for `COc1ccc2c(c1)C(=O)N(C[C@@]1(C#Cc3ccc4cnn(C)c4c3)NC(=O)NC1=O)C2` [Compound 423] here?
The Ki was less than 5 nM.

For `COc1ccc2c(c1)C(=O)N(C[C@@]1(C#Cc3ccc4cn(C)nc4c3)NC(=O)NC1=O)C2` [Compound 424], which Ki is on record?
The Ki was less than 5 nM.

For `COc1ccc2c(c1)C(=O)N(C[C@@]1(C#Cc3cncc4ccccc34)NC(=O)NC1=O)C2` [Compound 425], which Ki is on record?
The Ki was less than 5 nM.

With `COc1ccc2c(c1)C(=O)N(C[C@@]1(C#Cc3ccc(F)c(C(F)(F)F)c3)NC(=O)NC1=O)C2` [Compound 426] as the molecule, how does the Ki read?
Its Ki is less than 5 nM.

Which Ki does the source give for `COc1ccc2c(c1)C(=O)N(C[C@@]1(C#Cc3ccc(C)c(F)c3)NC(=O)NC1=O)C2` [Compound 427] here?
Its Ki is less than 5 nM.

`COc1ccc2c(c1)C(=O)N(C[C@@]1(C#Cc3ccc(C)c(Cl)c3)NC(=O)NC1=O)C2` [Compound 428] was tested. Which Ki did it give?
Its Ki is less than 5 nM.

`COc1ccc2c(c1)C(=O)N(C[C@@]1(C#Cc3cccc(OC(F)(F)F)c3)NC(=O)NC1=O)C2` [Compound 429] was tested. Which Ki did it give?
Its Ki is less than 5 nM.

With `COc1ccc2c(c1)C(=O)N(C[C@@]1(C#Cc3cncc(F)c3)NC(=O)NC1=O)C2` [Compound 430] as the molecule, how does the Ki read?
The Ki was less than 5 nM.

With `COc1ccc2c(c1)C(=O)N(C[C@@]1(C#Cc3ccc(F)c(C)c3)NC(=O)NC1=O)C2` [Compound 432] as the molecule, how does the Ki read?
The Ki was less than 5 nM.

Which Ki does the source give for `COc1ccc2c(c1)C(=O)N(C[C@@]1(C#Cc3ccc(F)cc3Cl)NC(=O)NC1=O)C2` [Compound 433] here?
Its Ki is less than 5 nM.

How did the Ki turn out when `COc1ccc2c(c1)C(=O)N(C[C@@]1(C#Cc3cc(F)c(F)c(OC)c3)NC(=O)NC1=O)C2` [Compound 434] was run?
The Ki was less than 5 nM.

For `COc1ccc2c(c1)C(=O)N(C[C@@]1(C#Cc3cc(O)c(F)c(F)c3)NC(=O)NC1=O)C2` [Compound 435], which Ki is on record?
Its Ki is less than 5 nM.

With `COc1ccc2c(c1)C(=O)N(C[C@@]1(C#Cc3ccc(C(F)(F)F)c(F)c3)NC(=O)NC1=O)C2` [Compound 436] as the molecule, how does the Ki read?
The Ki was less than 5 nM.

For `COc1ccc2c(c1)C(=O)N(C[C@@]1(C#Cc3cccc(F)c3C)NC(=O)NC1=O)C2` [Compound 437], which Ki is on record?
The Ki was less than 5 nM.

`COc1ccc2c(c1)C(=O)N(C[C@@]1(C#Cc3cccc(Cl)c3C)NC(=O)NC1=O)C2` [Compound 438] was tested. Which Ki did it give?
The Ki was less than 5 nM.

`COc1ccc2c(c1)C(=O)N(C[C@@]1(C#Cc3cc(C)cc(F)c3)NC(=O)NC1=O)C2` [Compound 439] was tested. Which Ki did it give?
Its Ki is less than 5 nM.

How did the Ki turn out when `COc1ccc2c(c1)C(=O)N(C[C@@]1(C#Cc3cc(F)cc(C(F)(F)F)c3)NC(=O)NC1=O)C2` [Compound 440] was run?
The Ki was less than 5 nM.

For `COc1ccc2c(c1)C(=O)N(C[C@@]1(C#Cc3cccc4ncccc34)NC(=O)NC1=O)C2` [Compound 441], which Ki is on record?
Its Ki is less than 5 nM.

For `COc1ccc2c(c1)C(=O)N(C[C@@]1(C#Cc3cccc4cnccc34)NC(=O)NC1=O)C2` [Compound 442], which Ki is on record?
The Ki was less than 5 nM.

How did the Ki turn out when `COc1ccc2c(c1)C(=O)N(C[C@@]1(C#Cc3cnc4ccccc4c3)NC(=O)NC1=O)C2` [Compound 443] was run?
Its Ki is less than 5 nM.

With `COc1ccc2c(c1)C(=O)N(C[C@@]1(C#Cc3ccc4c(cnn4C)c3)NC(=O)NC1=O)C2` [Compound 444] as the molecule, how does the Ki read?
Its Ki is less than 5 nM.

Which Ki does the source give for `COc1ccc2c(c1)C(=O)N(C[C@@]1(C#Cc3cccc(F)c3)NC(=O)NC1=O)C2` [Compound 445] here?
Its Ki is less than 5 nM.

`COc1ccc2c(c1)C(=O)N(C[C@@]1(C#Cc3cccc(Cl)c3)NC(=O)NC1=O)C2` [Compound 446] was tested. Which Ki did it give?
The Ki was less than 5 nM.

With `COc1ccc2c(c1)C(=O)N(C[C@@]1(C#Cc3cccc(C#N)c3)NC(=O)NC1=O)C2` [Compound 447] as the molecule, how does the Ki read?
Its Ki is less than 5 nM.

Which Ki does the source give for `COc1ccc2c(c1)C(=O)N(C[C@@]1(C#Cc3cc(F)cc(F)c3)NC(=O)NC1=O)C2` [Compound 448] here?
Its Ki is less than 5 nM.

For `COc1ccc2c(c1)C(=O)N(C[C@@]1(C#Cc3cc(Cl)cc(Cl)c3)NC(=O)NC1=O)C2` [Compound 449], which Ki is on record?
Its Ki is less than 5 nM.

How did the Ki turn out when `COc1ccc2c(c1)C(=O)N(C[C@@]1(C#Cc3cncnc3)NC(=O)NC1=O)C2` [Compound 450] was run?
Its Ki is less than 5 nM.

Which Ki does the source give for `COc1ccc2c(c1)C(=O)N(C[C@@]1(C#Cc3cccc(S(C)(=O)=O)c3)NC(=O)NC1=O)C2` [Compound 451] here?
The Ki was less than 5 nM.

For `COc1ccc2c(c1)C(=O)N(C[C@@]1(C#Cc3ccc(Cl)c(F)c3)NC(=O)NC1=O)C2` [Compound 452], which Ki is on record?
Its Ki is less than 5 nM.

How did the Ki turn out when `COc1ccc2c(c1)C(=O)N(C[C@@]1(C#Cc3cnc(N)nc3)NC(=O)NC1=O)C2` [Compound 453] was run?
The Ki was less than 5 nM.

`COc1ccc2c(c1)C(=O)N(C[C@@]1(C#Cc3nccs3)NC(=O)NC1=O)C2` [Compound 454] was tested. Which Ki did it give?
Its Ki is less than 5 nM.

`COc1ccc2c(c1)C(=O)N(C[C@@]1(C#Cc3cscn3)NC(=O)NC1=O)C2` [Compound 455] was tested. Which Ki did it give?
Its Ki is less than 5 nM.

`COc1ccc2c(c1)C(=O)N(C[C@@]1(C#Cc3cc(F)cc(Cl)c3)NC(=O)NC1=O)C2` [Compound 456] was tested. Which Ki did it give?
The Ki was less than 5 nM.

With `COc1ccc2c(c1)C(=O)N(C[C@@]1(C#Cc3c(C)nn(C)c3C)NC(=O)NC1=O)C2` [Compound 457] as the molecule, how does the Ki read?
Its Ki is less than 5 nM.

`COc1ccc2c(c1)C(=O)N(C[C@@]1(C#Cc3cc(F)cc(C#N)c3)NC(=O)NC1=O)C2` [Compound 458] was tested. Which Ki did it give?
Its Ki is less than 5 nM.

How did the Ki turn out when `COc1ccc2c(c1)C(=O)N(C[C@@]1(C#Cc3cccc(C(F)(F)F)c3)NC(=O)NC1=O)C2` [Compound 459] was run?
Its Ki is less than 5 nM.

Which Ki does the source give for `COc1ccc2c(c1)C(=O)N(C[C@@]1(C#Cc3ccc4nccn4c3)NC(=O)NC1=O)C2` [Compound 460] here?
The Ki was less than 5 nM.

How did the Ki turn out when `COc1ccc2c(c1)C(=O)N(C[C@@]1(C#Cc3cc(F)cc(F)c3F)NC(=O)NC1=O)C2` [Compound 461] was run?
The Ki was less than 5 nM.

How did the Ki turn out when `COc1ccc2c(c1)C(=O)N(C[C@@]1(C#Cc3cc(Cl)cc(C#N)c3)NC(=O)NC1=O)C2` [Compound 462] was run?
Its Ki is less than 5 nM.

same assay, conditions: rhTACEc 70 pM, 30 μM SPDL-3, 90 min pre-incubation at 25° C.; read-out: Ki (nM), TACE inhibitory activity

For `COc1ccc2c(c1)C(=O)N(C[C@@]1(C#Cc3cccnc3)NC(=O)NC1=O)C2` [Compound 400B], which Ki is on record?
Its Ki is 0.44 nM.

`COc1ccc2c(c1)C(=O)N(C[C@@]1(C#Cc3cccc4cnccc34)NC(=O)NC1=O)C2` [Compound 442] was tested. Which Ki did it give?
The Ki was 0.11 nM.
